Earlier results, collected in patent publication US20190209710A1, “[…] AND CHEWING GUM […] A […] FOR THE TASTE-BASED DETECTION OF VIRUSES” (Julius-Maximilians-Universitaet Wuerzburg, priority 2016, published 2019).

Assays:
bacterial sialidases = details: literature: Beau et al., Eur. J. Biochem., 106 (1980) 531-540
viral sialidases = details: literature: Beau et al., Eur. J. Biochem., 106 (1980) 531-540

CO[C@H]1CC(O)(C(=O)O)O[C@@H]([C@H](O)[C@H](O)CO)[C@@H]1NC(C)=O (some centres unmarked) [4-methoxy-Neu5Ac]
cleavage by bacterial sialidases (bacterial sialidases): not cut
cleavage by viral sialidases (viral sialidases): very quickly
